Experiment [1] relates to 5′-biotinylated dsDNA (DNA, duplex) TGTAATCGTAGGTTGGTCCCATCACCCACC/GGTGGGTGATGGGACCAACCTACGATTACA
Briefly: resonant mirror optical biosensor kinetics (IAsys plus). The note with it: 138 mM NaCl, 2.7 mM KCl; PBS (10 mM Na2HPO4), pH 7.4, 37 °C; monoexponential fit.

The next experiment has as its system CRL-1831 cells. The experiment can be described thus: Cytoplasmic cholesterol levels (AmplexRed), CRL-1831. To be noted: 10 μM, 4 h. The class given is cell-based, human.

The source of these data is publication PMC10009752 (Journal of Medicinal Chemistry, 2023).

Molecules are shown by their SMILES.

`COc1ccc(C(=O)c2c(C)nn(-c3ccccc3)c2[O-])cc1.COc1ccc(C(=O)c2c(C)nn(-c3ccccc3)c2[O-])cc1.COc1ccc(C(=O)c2c(C)nn(-c3ccccc3)c2[O-])cc1.[Ga+3]`: the KD in experiment [1] was found to be 3.34 ± 1.67 µM.

On to `Cc1nn(-c2ccccc2)c([O-])c1C(=O)c1ccc(C(C)(C)C)cc1.Cc1nn(-c2ccccc2)c([O-])c1C(=O)c1ccc(C(C)(C)C)cc1.Cc1nn(-c2ccccc2)c([O-])c1C(=O)c1ccc(C(C)(C)C)cc1.[Ga+3]`, for which, in experiment [1], the dissociation constant KD worked out at 3.27 ± 0.78 µM.

As for `Cc1nn(-c2ccccc2)c([O-])c1C(=O)c1ccccc1.Cc1nn(-c2ccccc2)c([O-])c1C(=O)c1ccccc1.Cc1nn(-c2ccccc2)c([O-])c1C(=O)c1ccccc1.[Ga+3]`, the KD in experiment [1] came out at 0.76 ± 0.54 µM.

As for `Cc1nn(-c2ccccc2)c([O-])c1C(=O)c1ccco1.Cc1nn(-c2ccccc2)c([O-])c1C(=O)c1ccco1.Cc1nn(-c2ccccc2)c([O-])c1C(=O)c1ccco1.[Ga+3]`, the KD in experiment [1] was determined as 3.63 ± 1.88 µM.

Regarding `Cc1nn(-c2ccccc2)c([O-])c1C(=O)c1cccs1.Cc1nn(-c2ccccc2)c([O-])c1C(=O)c1cccs1.Cc1nn(-c2ccccc2)c([O-])c1C(=O)c1cccs1.[Ga+3]`, the KD in experiment [1] turned out to be 2.24 ± 1.36 µM.

In the case of `CCC(C)(C)C(=O)O[C@H]1C[C@@H](C)C=C2C=C[C@H](C)[C@H](CC[C@@H]3C[C@@H](O)CC(=O)O3)[C@H]21` [Simvastatin, reference compound], the “cytoplasmic cholesterol concentration, CRL-1831” value with CRL-1831 cells is “significantly decreased”.

Broadly, the KD is the concentration at which binding is half-saturated.
